Source: ChEMBL document CHEMBL1137587, “MCH-R1 antagonists based on an arginine scaffold: SAR studies on the amino-terminus” (Bioorg Med Chem Lett, 2007)

The compounds below were run against Melanin-concentrating hormone receptor 1 (Homo sapiens, UniProt Q99705) (assay: Functional antagonism of MCH-R1 expressed in HEK293 cells).
Type: cell-based

Sequence of Melanin-concentrating hormone receptor 1 (Q99705 whole entry): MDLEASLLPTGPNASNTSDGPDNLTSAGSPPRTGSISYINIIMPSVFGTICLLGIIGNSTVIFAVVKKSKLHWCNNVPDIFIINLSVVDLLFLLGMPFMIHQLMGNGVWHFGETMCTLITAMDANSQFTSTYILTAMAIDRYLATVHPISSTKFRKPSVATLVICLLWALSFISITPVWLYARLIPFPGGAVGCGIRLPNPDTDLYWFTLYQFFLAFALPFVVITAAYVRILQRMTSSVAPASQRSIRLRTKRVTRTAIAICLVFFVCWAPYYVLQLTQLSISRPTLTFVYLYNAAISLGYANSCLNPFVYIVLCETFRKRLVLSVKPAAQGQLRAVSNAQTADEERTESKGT

SMILES | IC50 [nM]
N=C(N)NCCC[C@@H](NC(=O)c1cccc2ccccc12)C(=O)NCc1ccc(C(F)(F)F)cc1 | 1800
N=C(N)NCCC[C@@H](NC(=O)c1cc2ccccc2o1)C(=O)NCc1ccc(C(F)(F)F)cc1 | 313
N=C(N)NCCC[C@@H](NC(=O)C(c1ccccc1)c1ccccc1)C(=O)NCc1ccc(C(F)(F)F)cc1 | 112
N=C(N)NCCC[C@@H](NC(=O)c1ccnc2ccccc12)C(=O)NCc1ccc(C(F)(F)F)cc1 | 1030
N=C(N)NCCC[C@@H](NC(=O)c1cc2ccccc2[nH]1)C(=O)NCc1ccc(C(F)(F)F)cc1 | 20
N=C(N)NCCC[C@@H](NC(=O)C1c2ccccc2Oc2ccccc21)C(=O)NCc1ccc(C(F)(F)F)cc1 | 4
N=C(N)NCCC[C@@H](NC(=O)Cc1cccc2ccccc12)C(=O)NCc1ccc(C(F)(F)F)cc1 | 243
COc1ccc2[nH]c(C(=O)N[C@H](CCCNC(=N)N)C(=O)NCc3ccc(C(F)(F)F)cc3)cc2c1 | 78
N=C(N)NCCC[C@@H](NC(=O)Cc1csc2ccccc12)C(=O)NCc1ccc(C(F)(F)F)cc1 | 1010
COc1ccc2cc(C(=O)N[C@H](CCCNC(=N)N)C(=O)NCc3ccc(C(F)(F)F)cc3)ccc2c1 | 443
N=C(N)NCCC[C@@H](NC(=O)C1c2ccccc2Cc2ccccc21)C(=O)NCc1ccc(C(F)(F)F)cc1 | 763
N=C(N)NCCC[C@@H](NC(=O)c1cc2ccccc2s1)C(=O)NCc1ccc(C(F)(F)F)cc1 | 45
N=C(N)NCCC[C@@H](NC(=O)c1cc2cc(F)ccc2[nH]1)C(=O)NCc1ccc(C(F)(F)F)cc1 | 25
N=C(N)NCCC[C@@H](NC(=O)c1ccc2ccccc2c1)C(=O)NCc1ccc(C(F)(F)F)cc1 | 212
N=C(N)NCCC[C@@H](NC(=O)c1cc2ccccc2cn1)C(=O)NCc1ccc(C(F)(F)F)cc1 | 1810
N=C(N)NCCC[C@@H](NC(=O)Cc1cc2ccccc2[nH]1)C(=O)NCc1ccc(C(F)(F)F)cc1 | 512
N=C(N)NCCC[C@@H](NC(=O)c1csc2ccccc12)C(=O)NCc1ccc(C(F)(F)F)cc1 | 952
COc1cccc2cc(C(=O)N[C@H](CCCNC(=N)N)C(=O)NCc3ccc(C(F)(F)F)cc3)oc12 | 622
N=C(N)NCCC[C@@H](NC(=O)c1cnc2ccccc2c1)C(=O)NCc1ccc(C(F)(F)F)cc1 | 96
N=C(N)NCCC[C@@H](NC(=O)C1c2ccccc2-c2ccccc21)C(=O)NCc1ccc(C(F)(F)F)cc1 | 5
N=C(N)NCCC[C@@H](NC(=O)c1ccc2ccccc2n1)C(=O)NCc1ccc(C(F)(F)F)cc1 | 904
N=C(N)NCCC[C@@H](NC(=O)c1ccc(F)c2ccccc12)C(=O)NCc1ccc(C(F)(F)F)cc1 | 311
